Source: patent US6898533B1, “Methods for predicting the biological, chemical, and physical properties of molecules from their spectral properties” (The United States of America as represented by the …, priority 2000, dated 2005)
Like-named read-outs stand apart in the source and are kept apart here.

Columns and labels:
[1] = quantum yield for photosensitized production of singlet oxygen; type: physicochemical
From the text: Phototosensitized oxidations involving singlet oxygen, a strong oxidant, are implicated in photodynamic inactivation of viruses and cells, in phototherapy for cancer, in photocarcinogenesis and in photodegradation of dyes and polymers. Quenching of excited singlet and triplet states of many substances by ground state molecular oxygen produces singlet oxygen; the lowest electronically excited singlet state of molecular oxygen. A compilation of the quantum yields for the formation of singlet oxygen in fluid solutions for over 700 substances is available from the Notre Dame Radiation Laboratory—Radiation Chemistry Data Center.
The compounds are divided into two endpoint classes based upon having a high quantum yield for production of singlet oxygen (H, QY>0.50) or a low quantum yield for production of singlet oxygen (L, QY<0.50).

[2] = formation of singlet oxygen in fluid solutions; cited from earlier work
estrogen receptor [3] = assay: estrogen receptor binding class of the 30-compound training set
From the text: Two Spectral Data-Activity Relationship (SDAR) models were established, based on ^13C NMR and EI MS spectra, for 30 estrogenic chemicals whose relative binding affinities (RBA) for the alpha (ERα) and beta (ERβ) estrogen receptors are available.
Strong binders to the estrogen receptor were classified as having a log (RBA) over 0.0, and medium binders to the estrogen receptor were classified as having a log (RBA) of less than or equal to 0.0.

estrogen receptor [4] = assay: estrogen receptor relative binding affinity, expanded training set of 107 compounds; settings: input class, 107-compound training set
From the text: The training set included weak estrogen receptor binders in addition to strong and medium estrogen receptor binders.
For this model, strong estrogen receptor binders were defined as having log(RBA)>−0.25 and weak estrogen receptor binders were defined as having log(RBA)<−3.0. Medium estrogen receptor binders were defined as having log(RBA) in between.

[5] = target: T1, alpha (ERα) estrogen receptor (Homo sapiens, UniProt P03372); settings: cited from earlier work
T1 sequence (P03372 1-595): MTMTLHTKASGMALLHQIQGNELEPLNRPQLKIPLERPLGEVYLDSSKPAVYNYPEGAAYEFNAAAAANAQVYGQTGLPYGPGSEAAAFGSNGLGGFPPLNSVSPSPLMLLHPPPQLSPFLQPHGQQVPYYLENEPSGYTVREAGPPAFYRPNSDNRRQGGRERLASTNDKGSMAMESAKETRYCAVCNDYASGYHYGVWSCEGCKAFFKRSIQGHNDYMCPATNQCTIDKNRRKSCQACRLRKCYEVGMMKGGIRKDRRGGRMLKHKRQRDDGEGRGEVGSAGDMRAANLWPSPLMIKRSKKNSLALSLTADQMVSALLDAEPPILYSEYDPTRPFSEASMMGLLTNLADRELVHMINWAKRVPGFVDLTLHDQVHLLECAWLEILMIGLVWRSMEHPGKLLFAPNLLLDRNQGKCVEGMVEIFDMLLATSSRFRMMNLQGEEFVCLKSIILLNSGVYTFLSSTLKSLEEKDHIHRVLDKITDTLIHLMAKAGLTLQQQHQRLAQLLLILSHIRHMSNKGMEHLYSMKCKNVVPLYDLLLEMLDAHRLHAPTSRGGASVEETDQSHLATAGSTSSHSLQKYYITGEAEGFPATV

[6] = target: beta (ERβ) estrogen receptor (Rattus norvegicus, UniProt Q62986); settings: cited from earlier work
estrogen receptor [7] = settings: 107-compound training set; cited from earlier work
[8] = class from singlet oxygen quantum yield
[9] = SDAR training input endpoint class, 30 compounds
[10] = log of relative binding affinity, 17-β-estradiol RBA = 100

Chain of beta (ERβ) estrogen receptor (Q62986 whole entry): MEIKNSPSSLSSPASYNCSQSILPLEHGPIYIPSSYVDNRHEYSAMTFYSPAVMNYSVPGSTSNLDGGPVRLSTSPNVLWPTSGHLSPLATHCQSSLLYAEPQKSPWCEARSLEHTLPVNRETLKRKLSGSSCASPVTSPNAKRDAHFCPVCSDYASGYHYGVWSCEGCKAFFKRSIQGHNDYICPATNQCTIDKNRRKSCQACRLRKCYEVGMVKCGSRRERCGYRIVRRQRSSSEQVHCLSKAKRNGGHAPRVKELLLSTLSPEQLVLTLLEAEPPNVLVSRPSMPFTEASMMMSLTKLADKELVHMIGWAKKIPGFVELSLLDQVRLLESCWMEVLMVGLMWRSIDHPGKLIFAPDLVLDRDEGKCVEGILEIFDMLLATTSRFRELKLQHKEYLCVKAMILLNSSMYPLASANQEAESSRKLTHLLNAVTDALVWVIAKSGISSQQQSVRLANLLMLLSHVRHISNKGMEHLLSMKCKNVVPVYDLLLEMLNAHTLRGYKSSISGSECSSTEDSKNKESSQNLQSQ

c1ccc(-c2oc(-c3ccccc3)c3ccccc23)cc1 [1,3-Diphenylisobenzofuran]
Endpoint Class [1, 8]: L (low quantum yield for production of singlet oxygen (L, QY<0.50)) | Quantum Yield [2]: 0.26

Cn1ccc2ccccc21 [1-Methylindole]
Endpoint Class [1, 8]: L (low quantum yield for production of singlet oxygen (L, QY<0.50)) | Quantum Yield [2]: 0.35

C[C@]12CC[C@@H]3c4ccc(O)c(O)c4CC[C@H]3[C@@H]1CC[C@@H]2O [4-OH-Estradiol, 4-hydroxy-estradiol]
Class Input (estrogen receptor [3]; [9]): S (Strong binders to the estrogen receptor were classified as having a log (RBA) over 0.0) | Class (estrogen receptor [4]): S (strong estrogen receptor binders were defined as having log(RBA)>−0.25) | Log-(RBA) alpha [5, 10]: 1.11 | Log-(RBA) beta [6, 10]: 0.85

C[C@]12CCC(=O)C[C@@H]1CC[C@@H]1[C@@H]2CC[C@]2(C)C(=O)CC[C@@H]12 [5α-Androstanedione]
Class Input (estrogen receptor [3]): M (key: Strong binders to the estrogen receptor were classified as having a log (RBA) over 0.0; M: medium binders to the estrogen receptor were classified as having a log (RBA) of less than or equal to 0.0) | RBA class in words (estrogen receptor [3]): medium | Log-(RBA) alpha [5]: <−2.0 | Log-(RBA) beta [6]: <−2.0

C[C@]12CCC(=O)C[C@H]1CC[C@@H]1[C@@H]2CC[C@]2(C)C(=O)CC[C@@H]12 [5β-Androstanedione]
Class Input (estrogen receptor [3]): M (key: Strong binders to the estrogen receptor were classified as having a log (RBA) over 0.0; M: medium binders to the estrogen receptor were classified as having a log (RBA) of less than or equal to 0.0) | RBA class in words (estrogen receptor [3]): medium | Log-(RBA) alpha [5]: <−2.0 | Log-(RBA) beta [6]: <−2.0

O=C1c2ccccc2C(=O)c2ccccc21 [9,10-Anthraquinone]
Endpoint Class [1, 8]: L (low quantum yield for production of singlet oxygen (L, QY<0.50)) | Quantum Yield [2]: 0.15

C[C@]12CC[C@@H]3c4ccc(O)cc4CC[C@H]3[C@@H]1CC[C@H]2O [17α-Estradiol]
Class Input (estrogen receptor [3]; [9]): S (Strong binders to the estrogen receptor were classified as having a log (RBA) over 0.0) | Class (estrogen receptor [4]): S (strong estrogen receptor binders were defined as having log(RBA)>−0.25) | log RBA (estrogen receptor [7]): 0.49

C(=C\c1ccccc1)/c1ccccc1 [(E)-Stilbene]
Endpoint Class [1, 8]: L (low quantum yield for production of singlet oxygen (L, QY<0.50)) | Quantum Yield [2]: 0.08

CC(=O)c1ccccc1 [Acetophenone]
Endpoint Class [1, 8]: L (low quantum yield for production of singlet oxygen (L, QY<0.50)) | Quantum Yield [2]: 0.29

c1ccc2nc3ccccc3cc2c1 [Acridine]
Endpoint Class [1, 8]: H (high quantum yield for production of singlet oxygen (H, QY>0.50)) | Quantum Yield [2]: 0.83

c1ccc2cc3ccccc3cc2c1 [Anthracene]
Endpoint Class [1, 8]: H (high quantum yield for production of singlet oxygen (H, QY>0.50)) | Quantum Yield [2]: 0.83

O=C1c2ccccc2Cc2ccccc21 [Anthrone]
Endpoint Class [1, 8]: L (low quantum yield for production of singlet oxygen (L, QY<0.50)) | Quantum Yield [2]: 0.25

O=C(C(=O)c1ccccc1)c1ccccc1 [Benzil]
Endpoint Class [1, 8]: H (high quantum yield for production of singlet oxygen (H, QY>0.50))

O=C(c1ccccc1)c1ccccc1 [Benzophenone]
Endpoint Class [1, 8]: L (low quantum yield for production of singlet oxygen (L, QY<0.50)) | Quantum Yield [2]: 0.29

CC(=O)C(C)=O [Biacetyl]
Endpoint Class [1, 8]: H (high quantum yield for production of singlet oxygen (H, QY>0.50)) | Quantum Yield [2]: 0.57

c1ccc(-c2ccccc2)cc1 [Biphenyl]
Endpoint Class [1]: H (key: high quantum yield for production of singlet oxygen (H, QY>0.50); low quantum yield for production of singlet oxygen (L, QY<0.50))

O=c1oc2cc(O)ccc2c2oc3cc(O)ccc3c12 [Coumestrol]
Log-(RBA) beta [6, 10]: 2.27

C[C@]12CC[C@H](O)CC1=CC[C@@H]1[C@@H]2CC[C@]2(C)C(=O)CC[C@@H]12 [Dehydroepiandroster-one]
Class Input (estrogen receptor [3]; [9]): M (medium binders to the estrogen receptor were classified as having a log (RBA) of less than or equal to 0.0) | Log-(RBA) alpha [5]: −1.40 | Log-(RBA) beta [6]: −1.15

CC/C(=C(/CC)c1ccc(O)cc1)c1ccc(O)cc1 [Diethystibesterol]
Class Input (estrogen receptor [3]): S (key: Strong binders to the estrogen receptor were classified as having a log (RBA) over 0.0; M: medium binders to the estrogen receptor were classified as having a log (RBA) of less than or equal to 0.0) | Class (estrogen receptor [4]): S (strong estrogen receptor binders were defined as having log(RBA)>−0.25) | Log-(RBA) beta [6]: 2.47 | log RBA (estrogen receptor [7]): 2.60

C[C@]12CCC(=O)C[C@@H]1CC[C@@H]1[C@@H]2CC[C@]2(C)[C@@H](O)CC[C@@H]12 [Dihydrotestosterone]
Class Input (estrogen receptor [3]): M (key: Strong binders to the estrogen receptor were classified as having a log (RBA) over 0.0; M: medium binders to the estrogen receptor were classified as having a log (RBA) of less than or equal to 0.0) | Log-(RBA) beta [6]: −0.77

C[C@]12CC[C@@H]3c4ccc(O)cc4CC[C@H]3[C@@H]1C[C@@H](O)[C@@H]2O [Estriol]
Log-(RBA) beta [6, 10]: 1.32

c1ccc2c(c1)Cc1ccccc1-2 [Flourene]
Endpoint Class [1, 8]: H (high quantum yield for production of singlet oxygen (H, QY>0.50)) | Quantum Yield [2]: 0.74

CCCCN(C)C(=O)CCCCCCCCCC[C@@H]1Cc2cc(O)ccc2[C@H]2CC[C@]3(C)[C@@H](O)CC[C@H]3[C@H]12 [ICI 164,384]
Class Input (estrogen receptor [3]; [9]): S (Strong binders to the estrogen receptor were classified as having a log (RBA) over 0.0) | Class (estrogen receptor [4]): S (strong estrogen receptor binders were defined as having log(RBA)>−0.25) | Log-(RBA) beta [6, 10]: 2.22 | log RBA (estrogen receptor [7]): 1.16

C[C@]12CC[C@H]3[C@@H](CCC4=CC(=O)CC[C@@H]43)[C@@H]1CC[C@@H]2O [Nandrolone]
Class Input (estrogen receptor [3]; [9]): M (medium binders to the estrogen receptor were classified as having a log (RBA) of less than or equal to 0.0) | Log-(RBA) alpha [5]: −2.00 | Log-(RBA) beta [6]: −0.64

O=C1C=Cc2cccc3cccc1c23 [Phenalen-1-one]
Endpoint Class [1, 8]: H (high quantum yield for production of singlet oxygen (H, QY>0.50)) | Quantum Yield [2]: 0.94

CC(C)(C)C(=S)c1ccccc1 [Pivalothiophenone]
Endpoint Class [1, 8]: H (high quantum yield for production of singlet oxygen (H, QY>0.50)) | Quantum Yield [2]: 1.0

O=c1ccc2cc3ccoc3cc2o1 [Psoralen]
Endpoint Class [1, 8]: L (low quantum yield for production of singlet oxygen (L, QY<0.50)) | Quantum Yield [2]: 0.0055

c1cc2ccc3cccc4ccc(c1)c2c34 [Pyrene]
Endpoint Class [1, 8]: H (high quantum yield for production of singlet oxygen (H, QY>0.50)) | Quantum Yield [2]: 0.71

CC/C(=C(\c1ccccc1)c1ccc(OCCN(C)C)cc1)c1ccccc1 [Tamoxifen]
Class Input (estrogen receptor [3]; [9]): S (Strong binders to the estrogen receptor were classified as having a log (RBA) over 0.0) | Class (estrogen receptor [4]): S (strong estrogen receptor binders were defined as having log(RBA)>−0.25)

C[C@]12CC[C@H]3[C@@H](CCC4=CC(=O)CC[C@@]43C)[C@@H]1CC[C@@H]2O [Testosterone]
Class Input (estrogen receptor [3]; [9]): M (medium binders to the estrogen receptor were classified as having a log (RBA) of less than or equal to 0.0) | Log-(RBA) alpha [5]: −2.10 | Log-(RBA) beta [6]: −2.10

c1ccc2cc3cc4ccccc4cc3cc2c1 [Tetracene]
Endpoint Class [1, 8]: H (high quantum yield for production of singlet oxygen (H, QY>0.50)) | Quantum Yield [2]: 0.70

O=c1c2ccccc2oc2ccccc12 [Xanthen-9-one]
Endpoint Class [1, 8]: L (low quantum yield for production of singlet oxygen (L, QY<0.50)) | Quantum Yield [2]: 0.33

C[C@H]1CCC[C@@H](O)CCCCCc2cc(O)cc(O)c2C(=O)O1 [β-Zearanol]
Class Input (estrogen receptor [3]; [9]): M (medium binders to the estrogen receptor were classified as having a log (RBA) of less than or equal to 0.0) | Log-(RBA) alpha [5, 10]: −1.20
